From paper PMC7504216 (Molecules, 2020)
Like-named read-outs stand apart in the source and are kept apart here.

Columns and labels:
AChE = details: cited from earlier work
BChE = details: cited from earlier work; for BChE inhibition: 25 μg/mL (sphondin 115.7 μM, pimpinellin 101.5 μM), from Heracleum platytaenium
MAO-B = test system: MAO-B; set-up: method as in PMID 28634060; details: cited from earlier work
recombinant human MAO-A = molecular target: T1, recombinant human MAO-A (Homo sapiens, UniProt P21397); experiment: biochemical; format: biochemical; details: for remaining activity at 10 µM: read-out: Residual Activity at 10 µM (%) MAO-A
T1 construct: purchased Sigma-Aldrich
T1 sequence (P21397 1-527): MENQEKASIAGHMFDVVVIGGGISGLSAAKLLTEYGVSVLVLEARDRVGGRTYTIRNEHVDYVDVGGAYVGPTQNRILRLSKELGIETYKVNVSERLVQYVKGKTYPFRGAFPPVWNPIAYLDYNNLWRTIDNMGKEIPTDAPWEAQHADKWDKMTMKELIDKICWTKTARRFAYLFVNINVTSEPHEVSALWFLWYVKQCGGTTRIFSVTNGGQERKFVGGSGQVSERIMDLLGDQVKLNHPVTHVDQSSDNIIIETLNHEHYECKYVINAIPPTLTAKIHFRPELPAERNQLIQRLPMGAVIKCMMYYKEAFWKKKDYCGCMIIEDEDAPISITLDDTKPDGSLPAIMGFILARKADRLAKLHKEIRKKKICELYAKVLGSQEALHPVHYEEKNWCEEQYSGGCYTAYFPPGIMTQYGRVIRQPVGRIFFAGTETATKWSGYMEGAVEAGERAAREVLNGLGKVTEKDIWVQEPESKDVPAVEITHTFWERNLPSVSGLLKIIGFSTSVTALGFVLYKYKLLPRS

recombinant human MAO-B = molecular target: T2, recombinant human MAO-B (Homo sapiens, UniProt P27338); experiment: biochemical; format: biochemical; details: for remaining activity at 10 µM: read-out: Residual Activity at 10 µM (%) MAO-B
T2 construct: purchased Sigma-Aldrich
T2 sequence (P27338 1-520): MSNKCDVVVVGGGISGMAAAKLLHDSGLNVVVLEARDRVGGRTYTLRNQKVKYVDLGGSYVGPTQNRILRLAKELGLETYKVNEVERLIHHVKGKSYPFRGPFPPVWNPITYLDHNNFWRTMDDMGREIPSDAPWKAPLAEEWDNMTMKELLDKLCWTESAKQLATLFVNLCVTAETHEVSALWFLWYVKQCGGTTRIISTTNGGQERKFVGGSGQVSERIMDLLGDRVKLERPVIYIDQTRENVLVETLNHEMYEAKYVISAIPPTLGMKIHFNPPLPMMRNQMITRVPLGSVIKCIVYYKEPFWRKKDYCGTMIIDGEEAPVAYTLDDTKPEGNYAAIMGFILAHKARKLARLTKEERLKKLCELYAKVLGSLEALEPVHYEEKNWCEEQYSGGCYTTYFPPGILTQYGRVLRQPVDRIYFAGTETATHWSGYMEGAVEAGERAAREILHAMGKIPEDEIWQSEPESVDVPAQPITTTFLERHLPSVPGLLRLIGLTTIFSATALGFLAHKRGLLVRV

[1] = molecular target: T3, AChE from Electrophorus electricus (Electrophorus electricus, UniProt O42275); experiment: AChE inhibition assay (Ellman, ATCI); format: biochemical; details: for remaining activity at 10 µM: read-out: Residual Activity at 10 µM (%) AChE
T3 construct: purchased Sigma-Aldrich

BChE from equine serum [2] = molecular target: T4, BChE from equine serum (Equus caballus, UniProt P81908); experiment: BChE inhibition assay (Ellman, BTCI) and kinetics; format: biochemical; details: for remaining activity at 10 µM: read-out: Residual Activity at 10 µM (%) BChE
T4 construct: BChE from equine serum; purchased Sigma-Aldrich; host or cells: equine serum

BChE from equine serum [3] = molecular target: T4, BChE from equine serum; experiment: Reversibility of BChE inhibition by dialysis; format: biochemical
BChE from equine serum [4] = molecular target: T4, BChE from equine serum; experiment: Reversibility of BChE inhibition by dilution method; format: biochemical
[5] = inhibitor 10 µM, mean ± SE, triplicate

T4 sequence (P81908 whole entry): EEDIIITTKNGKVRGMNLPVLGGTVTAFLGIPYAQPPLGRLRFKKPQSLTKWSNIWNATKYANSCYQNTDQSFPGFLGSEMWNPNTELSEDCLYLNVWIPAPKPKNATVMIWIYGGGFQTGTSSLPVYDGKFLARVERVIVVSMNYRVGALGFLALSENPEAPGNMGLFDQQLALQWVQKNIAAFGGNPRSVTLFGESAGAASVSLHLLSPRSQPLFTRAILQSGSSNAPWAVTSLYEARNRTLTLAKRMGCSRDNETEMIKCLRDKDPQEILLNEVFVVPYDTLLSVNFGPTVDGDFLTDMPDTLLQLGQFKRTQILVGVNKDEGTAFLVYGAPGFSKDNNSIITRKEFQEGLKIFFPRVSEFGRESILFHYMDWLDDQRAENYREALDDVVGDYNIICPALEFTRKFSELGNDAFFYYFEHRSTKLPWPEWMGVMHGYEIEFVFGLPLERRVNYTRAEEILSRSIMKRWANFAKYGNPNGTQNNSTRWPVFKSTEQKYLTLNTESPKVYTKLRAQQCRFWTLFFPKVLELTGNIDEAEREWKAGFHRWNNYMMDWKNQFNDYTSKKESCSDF
T3 sequence (O42275 24-633): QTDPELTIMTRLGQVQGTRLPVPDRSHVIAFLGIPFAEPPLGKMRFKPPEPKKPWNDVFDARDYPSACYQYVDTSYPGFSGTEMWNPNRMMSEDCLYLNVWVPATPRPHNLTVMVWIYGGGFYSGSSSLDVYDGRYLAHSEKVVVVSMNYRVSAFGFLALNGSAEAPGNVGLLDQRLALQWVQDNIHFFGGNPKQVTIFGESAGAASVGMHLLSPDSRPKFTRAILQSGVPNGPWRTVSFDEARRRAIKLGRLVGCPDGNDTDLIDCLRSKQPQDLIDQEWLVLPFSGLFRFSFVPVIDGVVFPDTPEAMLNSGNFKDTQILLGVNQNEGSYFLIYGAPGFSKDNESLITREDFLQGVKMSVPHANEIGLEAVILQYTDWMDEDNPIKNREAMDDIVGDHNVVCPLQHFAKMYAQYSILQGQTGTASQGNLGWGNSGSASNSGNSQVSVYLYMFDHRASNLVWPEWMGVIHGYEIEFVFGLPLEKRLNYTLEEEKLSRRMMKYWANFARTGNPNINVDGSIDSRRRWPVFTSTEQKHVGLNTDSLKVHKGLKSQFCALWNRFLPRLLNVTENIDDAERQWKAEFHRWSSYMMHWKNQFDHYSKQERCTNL

Q: Which IC50 (AChE; from Mesua elegans) does the source give for `CCC(C)C(=O)c1c(O)c2c(c3c(-c4ccccc4)cc(=O)oc13)OC(C)(CCC=C(C)C)C=C2` (stereo not drawn) [mesuagenin B] here?
A: 0.7 µM

Q: Which IC50 (BChE) does the source give for `COc1ccc(CCCc2ccc(O)cc2)c(O)c1` [broussonin A] here?
A: 7.5 µM

Q: Which IC50 (MAO-B) does the source give for `COc1ccc(-c2cc(=O)c3c(O)cc(O)cc3o2)cc1` [acacetin] here?
A: 0.17 µM

Q: For `COc1cc2ccc(=O)oc2c2ccoc12` [sphondin], which BChE inhibition (BChE) is on record?
A: 63.69%

Q: With `COc1c(OC)c2occc2c2oc(=O)ccc12` [pimpinellin] as the compound, how does the BChE inhibition (BChE) read?
A: 78.02%

Q: With `O=C1C[C@@H](c2ccc(O[C@@H]3O[C@H](CO)[C@@H](O)[C@H](O)[C@H]3O)cc2)Oc2cc(O)ccc21` [Liquiritin, liquiritin] as the compound, how does the IC50 (recombinant human MAO-A) read?
A: > 40 µM

Q: What about the remaining activity at 10 µM (recombinant human MAO-A) of the same compound?
A: 93.5%

Q: And the IC50 (recombinant human MAO-B)?
A: > 40 µM

Q: And the remaining activity at 10 µM (recombinant human MAO-B)?
A: 90.2 ± 0.56%

Q: What about the IC50 [1] of the same compound?
A: > 40 µM

Q: And the remaining activity at 10 µM [1]?
A: 93.5 ± 5.12%

Q: And the IC50 (BChE from equine serum [2])?
A: > 40 µM

Q: And the remaining activity at 10 µM (BChE from equine serum [2])?
A: 95.5 ± 4.67%

Q: With `CC(C)=CCC[C@]1(C)[C@@H](CC=C(C)C)C[C@@]2(CC=C(C)C)C(=O)[C@]1(C(=O)C(C)C)C(=O)C(CC=C(C)C)=C2O` [hyperforin] as the compound, how does the IC50 (BChE) read?
A: 142 µM

Q: With hyuganin C as the compound, how does the IC50 (BChE) read?
A: 38.9 µM

Q: For `COc1c(CC=C(C)C)c(O)cc2oc(=O)c3c4ccc(O)cc4oc3c12` [GC, glycyrol], which IC50 (recombinant human MAO-A) is on record?
A: > 40 µM

Q: What about the remaining activity at 10 µM (recombinant human MAO-A) of the same compound?
A: 70.5 ± 1.61%

Q: What about the IC50 (recombinant human MAO-B) of the same compound?
A: 29.5 ± 0.67 µM

Q: And the remaining activity at 10 µM (recombinant human MAO-B)?
A: 74.2 ± 3.46%

Q: What about the IC50 [1] of the same compound?
A: 14.8 ± 0.19 µM

Q: What about the remaining activity at 10 µM [1] of the same compound?
A: 46.1 ± 4.4%

Q: And the IC50 (BChE from equine serum [2])?
A: 7.22 ± 0.37 µM

Q: What about the Ki (BChE from equine serum [2]) of the same compound?
A: 4.47 µM

Q: What about the “selectivity index (SI) for BChE with respect to AChE” value (BChE from equine serum [2]) of the same compound?
A: 2.0

Q: And the “mode of BChE inhibition” value (BChE from equine serum [2]; Lineweaver-Burk plots)?
A: reversible, noncompetitive inhibitor

Q: What about the remaining activity at 10 µM (BChE from equine serum [2]) of the same compound?
A: 44.6 ± 5.36%

Q: What about the “Residual BChE activity, undialyzed (AU)” value (BChE from equine serum [3]; 2 × IC50 (GC […]; tacrine 0.03 µM), 30 min preincubation) of the same compound?
A: 34.6%

Q: And the “Residual BChE activity, dialyzed (AD)” value (BChE from equine serum [3]; 2 × IC50 (GC […]; tacrine 0.03 µM), 6 h dialysis)?
A: 58.4%

Q: What about the “reversibility of BChE inhibition” value (BChE from equine serum [3]; dialysis and dilution methods) of the same compound?
A: reversible inhibitor

Q: And the “residual BChE activity, preincubated at 50 × IC50 then diluted to 1 × IC50” value (BChE from equine serum [4]; 15 min preincubation, after dilution)?
A: 40.1%

Q: And the “residual BChE activity, control at 1 × IC50 (before dilution)” value (BChE from equine serum [4]; GC at 1 × IC50)?
A: 51.1%

Q: What about the “residual BChE activity at 50 × IC50” value (BChE from equine serum [4]; GC at 50 × IC50) of the same compound?
A: 10.3%

Q: Which IC50 (BChE) does the source give for `COc1cc2ccc(=O)oc2cc1O` [scopoletin] here?
A: 9.11 µM

Q: With `CC1(C)[C@@H](O)CC[C@]2(C)[C@H]3C(=O)C=C4[C@@H]5C[C@@](C)(C(=O)O)CC[C@]5(C)CC[C@@]4(C)[C@]3(C)CC[C@@H]12` [Glycyrrhetinic acid, glycyrrhetinic acid] as the compound, how does the IC50 (recombinant human MAO-A) read?
A: > 40 µM

Q: And the remaining activity at 10 µM (recombinant human MAO-A; [5])?
A: 96.3 ± 2.64%

Q: What about the IC50 (recombinant human MAO-B) of the same compound?
A: > 40 µM

Q: What about the remaining activity at 10 µM (recombinant human MAO-B; [5]) of the same compound?
A: 84 ± 2.16%

Q: And the remaining activity at 10 µM [1]?
A: 97.3 ± 1.61%

Q: And the remaining activity at 10 µM (BChE from equine serum [2])?
A: 95 ± 4.12%

Q: For `COc1c2occc2cc2ccc(=O)oc12` [xanthotoxin], which IC50 (AChE; from Ferula lutea) is on record?
A: 0.76 µM

Q: For `O=C(/C=C/c1ccc(O[C@@H]2O[C@H](CO)[C@@H](O)[C@H](O)[C@H]2O)cc1)c1ccc(O)cc1O` [Isoliquiritin, isoliquiritin], which IC50 (recombinant human MAO-A) is on record?
A: > 40 µM

Q: What about the remaining activity at 10 µM (recombinant human MAO-A) of the same compound?
A: 81.8 ± 1.61%

Q: What about the IC50 (recombinant human MAO-B) of the same compound?
A: > 40 µM

Q: What about the remaining activity at 10 µM (recombinant human MAO-B) of the same compound?
A: 75.4 ± 2.27%

Q: And the IC50 [1]?
A: > 40 µM

Q: What about the remaining activity at 10 µM [1] of the same compound?
A: 69.9 ± 2.2%

Q: And the IC50 (BChE from equine serum [2])?
A: > 40 µM

Q: And the remaining activity at 10 µM (BChE from equine serum [2])?
A: 91.9 ± 7.16%
